Measurements: ChEMBL document CHEMBL6078691, “Modulating Phosphorylation by Proximity-Inducing Modalities for Cancer Therapy” (J Med Chem, 2024)

How the values were obtained:
[1] = biological target: Microtubule-associated protein tau (Homo sapiens, UniProt P10636); test: Inhibition of tau phosphorylation (unknown origin)
[2] = biological target: T1, Epidermal growth factor receptor (Homo sapiens, UniProt P00533); test: Inhibition of EGFR (unknown origin) at 0.5 uM relative to control
[3] = biological target: T1, Epidermal growth factor receptor; test: Inhibition of EGFR (unknown origin)

Sequence of Microtubule-associated protein tau (P10636 whole entry): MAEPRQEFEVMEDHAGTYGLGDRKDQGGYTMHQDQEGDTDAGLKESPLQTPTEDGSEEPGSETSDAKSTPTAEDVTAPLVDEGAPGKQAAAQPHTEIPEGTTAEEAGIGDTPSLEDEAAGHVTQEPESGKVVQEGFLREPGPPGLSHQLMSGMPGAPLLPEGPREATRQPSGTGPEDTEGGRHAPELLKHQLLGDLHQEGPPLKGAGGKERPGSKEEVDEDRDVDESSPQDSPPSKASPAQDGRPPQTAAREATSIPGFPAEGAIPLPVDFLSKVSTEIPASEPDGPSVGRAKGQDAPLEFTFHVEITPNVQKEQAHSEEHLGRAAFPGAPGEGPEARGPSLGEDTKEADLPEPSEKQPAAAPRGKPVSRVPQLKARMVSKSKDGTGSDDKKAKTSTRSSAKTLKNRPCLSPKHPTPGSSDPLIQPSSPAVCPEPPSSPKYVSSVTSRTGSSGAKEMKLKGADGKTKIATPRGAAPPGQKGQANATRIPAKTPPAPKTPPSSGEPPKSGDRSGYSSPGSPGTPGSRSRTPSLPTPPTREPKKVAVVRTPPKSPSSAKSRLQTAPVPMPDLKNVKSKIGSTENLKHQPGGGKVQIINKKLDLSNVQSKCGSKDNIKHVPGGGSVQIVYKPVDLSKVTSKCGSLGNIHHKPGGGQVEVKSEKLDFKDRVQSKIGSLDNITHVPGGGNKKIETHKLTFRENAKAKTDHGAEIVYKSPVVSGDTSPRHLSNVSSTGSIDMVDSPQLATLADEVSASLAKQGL
T1 sequence (P00533 whole entry): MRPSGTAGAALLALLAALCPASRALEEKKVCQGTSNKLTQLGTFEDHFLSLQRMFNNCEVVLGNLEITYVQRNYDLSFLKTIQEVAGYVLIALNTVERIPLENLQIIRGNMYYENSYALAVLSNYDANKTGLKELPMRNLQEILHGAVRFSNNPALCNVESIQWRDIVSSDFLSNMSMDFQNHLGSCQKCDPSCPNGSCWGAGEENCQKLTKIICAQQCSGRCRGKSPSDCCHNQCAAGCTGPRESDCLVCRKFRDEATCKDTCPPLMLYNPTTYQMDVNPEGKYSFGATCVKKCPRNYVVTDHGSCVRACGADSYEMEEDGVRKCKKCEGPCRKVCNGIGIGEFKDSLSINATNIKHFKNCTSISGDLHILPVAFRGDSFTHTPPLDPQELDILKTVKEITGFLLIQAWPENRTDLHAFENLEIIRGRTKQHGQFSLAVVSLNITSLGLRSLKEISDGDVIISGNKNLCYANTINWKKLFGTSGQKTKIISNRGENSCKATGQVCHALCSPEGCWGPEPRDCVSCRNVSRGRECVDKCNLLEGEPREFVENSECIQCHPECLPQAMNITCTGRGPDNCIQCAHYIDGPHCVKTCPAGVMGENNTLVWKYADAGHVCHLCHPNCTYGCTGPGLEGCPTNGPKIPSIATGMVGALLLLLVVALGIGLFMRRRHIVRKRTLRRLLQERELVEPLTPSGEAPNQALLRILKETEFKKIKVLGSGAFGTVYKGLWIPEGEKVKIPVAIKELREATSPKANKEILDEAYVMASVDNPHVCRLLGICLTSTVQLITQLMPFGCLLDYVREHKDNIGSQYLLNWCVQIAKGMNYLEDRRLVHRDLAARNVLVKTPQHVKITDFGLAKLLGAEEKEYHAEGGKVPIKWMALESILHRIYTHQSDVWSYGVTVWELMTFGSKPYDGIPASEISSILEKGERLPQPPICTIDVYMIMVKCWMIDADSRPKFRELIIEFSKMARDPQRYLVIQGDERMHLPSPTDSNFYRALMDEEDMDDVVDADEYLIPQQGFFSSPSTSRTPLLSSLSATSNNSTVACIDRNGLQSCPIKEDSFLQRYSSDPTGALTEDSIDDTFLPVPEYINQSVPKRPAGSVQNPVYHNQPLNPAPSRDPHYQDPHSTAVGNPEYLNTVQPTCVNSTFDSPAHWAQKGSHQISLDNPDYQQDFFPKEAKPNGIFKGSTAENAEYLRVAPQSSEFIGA

Compound “H-YQQYQDATADEQGGSGSKKVAVVRTPPKSPRRRRRRRR-OH” has an IC50 [1] greater than 20000 nM.

`CC[C@H](C(=O)N1CCCC[C@@H]1C(=O)O[C@H](CCc1ccc(OC)c(OC)c1)c1cccc(OCC(=O)NCCOCCOCCN(C)C/C=C/C(=O)Nc2cc3c(Nc4ccc(F)c(Cl)c4)ncnc3cc2OC)c1)c1cc(OC)c(OC)c(OC)c1` showed an inhibition [2] of 90%.

`CC[C@H](C)[C@H](NC(=O)[C@H](CCSC)NC(=O)[C@H](Cc1c[nH]c2ccccc12)NC(=O)[C@@H](NC(=O)[C@@H](N)CC(=O)O)C(C)C)C(=O)N[C@@H](CC(N)=O)C(=O)N[C@@H](CCCCN)C(=O)N[C@@H](CCCCN)C(=O)N[C@@H](CCCNC(=N)N)C(=O)N[C@@H](CCCCN)C(=O)NCCOCCOCCOCCOCCOCCOCCN[C@@H](CCCNC(=N)N)C(=O)N[C@H](C(=O)N1CCC[C@H]1C(=O)N1CCC[C@H]1C(=O)N[C@@H](CCCCN)C(=O)N[C@@H](CO)C(=O)N1CCC[C@H]1C(=O)N[C@@H](CCCNC(=N)N)C(=O)N[C@@H](CCCNC(=N)N)C(=O)N[C@@H](CCCNC(=N)N)C(=O)N[C@@H](CCCNC(=N)N)C(=O)N[C@@H](CCCNC(=N)N)C(=O)N[C@@H](CCCNC(=N)N)C(=O)N[C@@H](CCCNC(=N)N)C(=O)N[C@@H](CCCNC(=N)N)C(=O)O)[C@@H](C)O` showed an IC50 [1] of 2000 nM.

Compound `CC[C@H](C(=O)N1CCCC[C@@H]1C(=O)O[C@H](CCc1ccc(OC)c(OC)c1)c1cccc(OCC(=O)NCCC(=O)N2CCN(CCCOc3cc4c(Nc5ccc(F)c(Cl)c5)ncnc4cc3OC)CC2)c1)c1cc(OC)c(OC)c(OC)c1` has an IC50 [3] of 13 nM.
